# Measured values published in PMC7216583 (Parasites & Vectors, 2020).
# Structures can show the parent of a compound that is named as a salt. Where two headings read alike, the source gives them in different places.
# Key:
# Bcl-w = target: Bcl-w; parameters: method as in library vendor description; settings: ref library vendor description; cited from earlier work
# [1] = system: Toxoplasma gondii RH-2F tachyzoites; experiment: microbe, parasite or virus in culture; settings: 72 h
# HIV-I integrase (IN) = target: HIV-I integrase (IN); parameters: method as in S-inhibitor; settings: ref S-inhibitor; cited from earlier work
# Aβ40 = system: Aβ40; parameters: method as in library vendor description; settings: γ-secretase inhibitor; ref library vendor description; cited from earlier work
# Aβ42 = system: Aβ42; parameters: method as in library vendor description; settings: γ-secretase inhibitor; ref library vendor description; cited from earlier work
# PDK-1 = system: PDK-1; parameters: method as in library vendor description; settings: ref library vendor description; read-out: IC50 PDK-1; cited from earlier work
# TBK1 = system: TBK1; parameters: method as in library vendor description; settings: ref library vendor description; cited from earlier work
# IKKε = system: IKKε; parameters: method as in library vendor description; settings: ref library vendor description; cited from earlier work
# [2] = parameters: method as in library vendor description; settings: target not given; ref library vendor description; read-out: IC50 (DNA-damaging agent); cited from earlier work
# LPDE4 = system: LPDE4; parameters: method as in S-inhibitor; settings: ref S-inhibitor; cited from earlier work
# HPDE4 = system: HPDE4; parameters: method as in S-inhibitor; settings: ref S-inhibitor; cited from earlier work
# HDAC3 = system: HDAC3; parameters: method as in S-inhibitor; settings: ref S-inhibitor; cited from earlier work
# HDAC8 = system: HDAC8; parameters: method as in S-inhibitor; settings: ref S-inhibitor; cited from earlier work
# microtubule [3] = system: microtubule; parameters: method as in library vendor description; settings: ref library vendor description; cited from earlier work
# microtubule [4] = system: microtubule; parameters: method as in S-inhibitor; settings: ref S-inhibitor; cited from earlier work
# ROCK1 = system: ROCK1; parameters: method as in S-inhibitor; settings: ref S-inhibitor; cited from earlier work
# ROCK2 = system: ROCK2; parameters: method as in S-inhibitor; settings: ref S-inhibitor; cited from earlier work
# mTOR = system: mTOR; parameters: method as in library vendor description; settings: ref library vendor description; cited from earlier work
# PI3Kδ = system: PI3Kδ; parameters: method as in library vendor description; settings: ref library vendor description; cited from earlier work
# PI3Kγ = system: PI3Kγ; parameters: method as in library vendor description; settings: ref library vendor description; cited from earlier work
# PI3Kα = system: PI3Kα; parameters: method as in library vendor description; settings: ref library vendor description; cited from earlier work
# PI3Kβ = system: PI3Kβ; parameters: method as in library vendor description; settings: ref library vendor description; cited from earlier work
# KSP (HsEg5) = target: KSP (HsEg5); parameters: method as in S-inhibitor; settings: ref S-inhibitor; cited from earlier work
# VEGFR2 = system: VEGFR2; parameters: method as in S-inhibitor; settings: ref S-inhibitor; cited from earlier work
# PDGFRα = system: PDGFRα; parameters: method as in S-inhibitor; settings: ref S-inhibitor; cited from earlier work
# c-Kit [5] = system: c-Kit; parameters: method as in S-inhibitor; settings: ref S-inhibitor; cited from earlier work
# mTORC1 = system: mTORC1; parameters: method as in library vendor description; settings: ref library vendor description; cited from earlier work
# mTORC2 = system: mTORC2; parameters: method as in library vendor description; settings: ref library vendor description; cited from earlier work
# c-Kit [6] = system: c-Kit; parameters: method as in library vendor description; settings: ref library vendor description; cited from earlier work
# KDR = system: KDR; parameters: method as in library vendor description; settings: ref library vendor description; cited from earlier work
# Flt = system: Flt; parameters: method as in library vendor description; settings: ref library vendor description; cited from earlier work
# CSF-1R = system: CSF-1R; parameters: method as in library vendor description; settings: ref library vendor description; cited from earlier work
# c-Raf = system: c-Raf; parameters: method as in library vendor description; settings: ref library vendor description; cited from earlier work
# Lck = system: Lck; parameters: method as in library vendor description; settings: ref library vendor description; cited from earlier work
# in vitro = settings: human, Host viability (%) mean
# Aurora B = system: Aurora B; parameters: method as in S-inhibitor; settings: ref S-inhibitor; cited from earlier work
# Aurora C = system: Aurora C; parameters: method as in S-inhibitor; settings: ref S-inhibitor; cited from earlier work
# sterol C14ɑ demethylase = target: sterol C14ɑ demethylase; parameters: method as in library vendor description; settings: ref library vendor description; cited from earlier work
# JAK1 = settings: read-out: IC50, JAK1; ref S-inhibitor; cited from earlier work
# JAK3 = settings: read-out: IC50, JAK3; ref S-inhibitor; cited from earlier work
# MAO-B = system: MAO-B; parameters: method as in S-inhibitor; settings: ref S-inhibitor; cited from earlier work
# rat 17,20-lyase = target: rat 17,20-lyase; parameters: method as in library vendor description; settings: ref library vendor description; cited from earlier work
# human 17,20-lyase = target: human 17,20-lyase; parameters: method as in library vendor description; settings: ref library vendor description; cited from earlier work
# Flk-1/KDR = target: Flk-1/KDR; parameters: method as in S-inhibitor; settings: ref S-inhibitor; cited from earlier work
# PDGFRβ = target: PDGFRβ; parameters: method as in S-inhibitor; settings: ref S-inhibitor; cited from earlier work
# ROCK = system: ROCK; parameters: method as in S-inhibitor; settings: ref S-inhibitor; cited from earlier work
# [7] = target: farnesyltransferase (FTase); parameters: method as in S-inhibitor; settings: ref S-inhibitor; cited from earlier work
# HCV polymerase = target: HCV polymerase; parameters: method as in S-inhibitor; settings: ref S-inhibitor; cited from earlier work
# Endothelin A (ETA) = system: Endothelin A (ETA); parameters: method as in S-inhibitor; settings: ref S-inhibitor; cited from earlier work
# [8] = system: Toxoplasma gondii RH-2F tachyzoites; settings: preliminary screen, mean
# [9] = system: human foreskin fibroblasts (HFFs)
# VEGFR1 = system: VEGFR1; parameters: method as in library vendor description; settings: ref library vendor description; cited from earlier work
# VEGFR3 = system: VEGFR3; parameters: method as in library vendor description; settings: ref library vendor description; cited from earlier work
# Tie2 = system: Tie2; parameters: method as in library vendor description; settings: ref library vendor description; cited from earlier work
# Ron = system: Ron; parameters: method as in library vendor description; settings: ref library vendor description; cited from earlier work
# [10] = read-out: Parasite inhibition (%) mean, preliminary screen, mean
# [11] = read-out: Parasite inhibition (%) mean
molecule,measurement,setting,value
CC1(C)CCC(c2ccc(Cl)cc2)=C(CN2CCN(c3ccc(C(=O)NS(=O)(=O)c4ccc(N[C@H](CCN5CCOCC5)CSc5ccccc5)c(S(=O)(=O)C(F)(F)F)c4)cc3)CC2)C1 [ABT-263 (Navitoclax)],Ki,Bcl-w,≤ 1 nM
same,inhibition of growth at 5 µM,[1]; [10],33.5%
Cn1c(N2CCCCS2(=O)=O)nc(C(=O)NCc2ccc(F)cc2)c(O)c1=O [BMS-707035],IC50,HIV-I integrase (IN),15 nM
same,inhibition of growth at 5 µM,[1]; [10],0.2%
NC(=O)[C@@H](CCC(F)(F)F)N(Cc1ccc(-c2ncon2)cc1F)S(=O)(=O)c1ccc(Cl)cc1 [BMS-708163 (Avagacestat)],IC50,Aβ40,0.3 nM
same,IC50,Aβ42,0.27 nM
same,inhibition of growth at 5 µM,[1]; [10],8.7%
O=C(NCCCNc1nc(Nc2cccc(NC(=O)N3CCCC3)c2)ncc1I)c1cccs1 [BX-795],IC50,PDK-1,111 nM
same,IC50,TBK1,6 nM
same,IC50,IKKε,41 nM
same,inhibition of growth at 5 µM,[1]; [10],0.7%
Cn1c(CCCC(=O)O)nc2cc(N(CCCl)CCCl)ccc21 [Bendamustine HCL],IC50,[2],50000 nM
same,inhibition of growth at 5 µM,[1]; [11],0.4%
COc1ccc(C2(C#N)CCC(C(=O)O)CC2)cc1OC1CCCC1 (stereo not shown) [Cilomilast (SB-207499)],IC50,LPDE4,100 nM
same,IC50,HPDE4,120 nM
same,inhibition of growth at 5 µM,[1]; [10],65.2%
Cc1cc(Cl)ccc1OCCCC(=O)NO [Droxinostat],IC50,HDAC3,16900 nM
same,IC50,HDAC8,1460 nM
same,inhibition of growth at 5 µM,[1]; [10],7.2%
C/C(=C\c1csc(C)n1)[C@@H]1C[C@@H]2O[C@@H]2CCC[C@H](C)[C@H](O)[C@@H](C)C(=O)C(C)(C)[C@@H](O)CC(=O)O1 [Epothilone A],EC0.01 microtubule-stabilizing,microtubule [3],Epothilone A is a Taxol-like microtubule-stabilizing agent with EC0.01 of 2 μM.
same,inhibition of growth at 5 µM,[1]; [10],20.4%
C/C(=C\c1csc(C)n1)[C@H]1C[C@@H]2O[C@]2(C)CCC[C@H](C)[C@H](O)[C@@H](C)C(=O)C(C)(C)[C@H](O)CC(=O)O1 [Epothilone B (EPO906)],"EC0.01, microtubule stabilization",microtubule [4],Epothilone B is a Taxol-like microtubule-stabilizing agent with EC0.01 of 1.8 μM.
same,inhibition of growth at 5 µM,[1]; [11],36.5%
CC1=C(C(=O)Nc2cc3cn[nH]c3cc2F)C(c2ccc(C(F)(F)F)cc2)CC(=O)N1 (stereo not shown) [GSK429286A],IC50,ROCK1,14 nM
same,IC50,ROCK2,63 nM
same,inhibition of growth at 5 µM,[1]; [10],0.9%
O=C1NC(=O)/C(=C/c2ccc3nccc(-c4ccncc4)c3c2)S1 [GSK1059615],IC50,mTOR,12 nM
same,IC50,PI3Kδ,2 nM
same,IC50,PI3Kγ,5 nM
same,IC50,PI3Kα,0.4 nM
same,IC50,PI3Kβ,0.6 nM
same,inhibition of growth at 5 µM,[1]; [10],40.6%
Cc1ccc(C(=O)N(CCCN)[C@@H](c2nc3cc(Cl)ccc3c(=O)n2Cc2ccccc2)C(C)C)cc1 [Ispinesib (SB-715992)],Ki,KSP (HsEg5),1.7 nM
same,inhibition of growth at 5 µM,[1]; [10],2.1%
COc1cc2nccc(Oc3ccc(NC(=O)Nc4ccc(F)cc4F)c(F)c3)c2cc1OC [Ki8751],IC50,VEGFR2,0.9 nM
same,IC50,PDGFRα,67 nM
same,IC50,c-Kit [5],40 nM
same,inhibition of growth at 5 µM,[1]; [10],-45.8%
COc1ccc(-c2ccc3c(N4CCOCC4)nc(N4C[C@@H](C)O[C@@H](C)C4)nc3n2)cc1CO [Ku-0063794],IC50,mTORC1,[…]
same,inhibition of growth at 5 µM,[1]; [10],31.4%
O=C(Nc1ccc(OC(F)(F)F)cc1)c1sccc1NCc1ccnc2ccccc12 [OSI-930],IC50,c-Kit [6],80 nM
same,IC50,KDR,9 nM
same,IC50,Flt,8 nM
same,IC50,CSF-1R,15 nM
same,IC50,c-Raf,41 nM
same,IC50,Lck,22 nM
same,inhibition of growth at 5 µM,[1]; [10],1%
CCc1cccc(CC)c1NC(=O)N1Cc2n[nH]c(NC(=O)c3ccc(N4CCN(C)CC4)cc3)c2C1 [PHA-680632],viability at 72 h,in vitro,45.2%
same,IC50,Aurora B,135 nM
same,IC50,Aurora C,120 nM
same,inhibition of growth at 5 µM,[1]; [10],88.8%
CC[C@@H]([C@H](C)O)n1ncn(-c2ccc(N3CCN(c4ccc(OC[C@@H]5CO[C@@](Cn6cncn6)(c6ccc(F)cc6F)C5)cc4)CC3)cc2)c1=O [Posaconazole],IC50,sterol C14ɑ demethylase,0.25 nM
same,inhibition of growth at 5 µM,[1]; [10],0.6%
N#CC[C@H](C1CCCC1)n1cc(-c2ncnc3[nH]ccc23)cn1 [Ruxolitinib (INCB018424)],IC50,JAK1,[…]
same,inhibition of growth at 5 µM,[1]; [10],10.2%
C[C@H](NCc1ccc(OCc2cccc(F)c2)cc1)C(N)=O [Safinamide Mesylate (FCE28073)],IC50,MAO-B,[…]
same,inhibition of growth at 5 µM,[1]; [10],5.9%
CNC(=O)c1ccc2cc(C3(O)CCn4cncc43)ccc2c1 (stereo not shown) [TAK-700 (Orteronel)],IC50,"rat 17,20-lyase",54 nM
same,IC50,"human 17,20-lyase",38 nM
same,inhibition of growth at 5 µM,[1]; [10],0.9%
Cc1[nH]c(/C=C2\C(=O)Nc3ccccc32)c(C)c1CCC(=O)O [TSU-68 (SU6668)],Ki,Flk-1/KDR,2100 nM
same,Ki,PDGFRβ,8 nM
same,inhibition of growth at 5 µM,[1]; [10],2.8%
O=C(NCc1ccccc1)c1csc(Nc2ccncn2)n1 [Thiazovivin],IC50,ROCK,~500 nM
same,inhibition of growth at 5 µM,[1]; [10],-0.7%
Cn1cncc1[C@@](N)(c1ccc(Cl)cc1)c1ccc2c(c1)c(-c1cccc(Cl)c1)cc(=O)n2C [Tipifarnib (Zarnestra)],IC50,[7],0.6 nM
same,inhibition of growth at 5 µM,[1]; [10],6.5%
CC(C)(C)C#Cc1cc(N(C(=O)[C@H]2CC[C@H](C)CC2)[C@H]2CC[C@H](O)CC2)c(C(=O)O)s1 [VX-222],IC50,HCV polymerase,940 to 1200 nM
same,inhibition of growth at 5 µM,[1]; [10],9.6%
COc1nc(C)cnc1NS(=O)(=O)c1cccnc1-c1ccc(-c2nnco2)cc1 [Zibotentan (ZD4054)],IC50,Endothelin A (ETA),21 nM
same,inhibition of growth at 5 µM,[1]; [10],1.8%
MGCD-265,Parasite inhibition (%) mean,[8],88.8%
same,Host viability (%) mean,[9],68.1%
same,IC50,VEGFR1,3 nM
same,IC50,VEGFR3,4 nM
same,IC50,Tie2,7 nM
same,IC50,Ron,2 nM
